Key:
[1] = system: ‘Justice’ tall fescue transgenic events; test: Quizalofop on AAD1 ‘Justice’ tall fescue plants; format: in vivo; details: written in present tense
Protocol: ‘Justice’ tall fescue transgenic plants events were selected on tissue culture media containing quizalofop, and confirmed via PCR amplification of an inserted T-strand.
A growth medium was prepared by mixing Promix® and sand in a 2 to 1 ratio. The medium was contained in plastic pots. When required to maintain plant health, a fungicide, insecticide, and/or other chemical or physical treatment was applied to stock plants. The plants were maintained in a greenhouse and treated with fertilizer and growth supplements as needed and water was added on a regular basis. Supplemental lighting was provided.
The selected T0 plants are sprayed with quizalofop at rates ranging in concentration, beyond the typical in field usage rate. This rate structure is selected based on the GR90 (herbicide rate which produces 90% injury and/or growth inhibition) and the rate that would also control susceptible monocot weed species. […]
The treated plants and control plants are placed in a greenhouse and watered by sub-irrigation to prevent wash-off of the test compounds. At various times after application, the condition of the test plants as compared with that of the untreated plants is determined visually and scored on a scale of 0 to 100 percent, where 0 corresponds to no injury or growth inhibition, and 100 corresponds to complete kill. […]

[2] = system: AAD1-transformed T0 2095-2 creeping bentgrass events; test: Quizalofop-p-ethyl postemergence on AAD1 (pDAB5042) creeping bentgrass line 2095-2; format: in vivo, Agrostis stolonifera
Protocol: Selected T0 plants were sprayed with quizalofop-p-ethyl (Assure II®, DUPONT, Wilmington, Del.) at rates ranging from 60 to 2,240 g ae/ha. […] This rate also controls susceptible monocot weed species. Measured amounts were placed individually in 25 mL glass vials and dissolved in a 4 mL volume of 1.0% (v/v) Agri-Dex® Crop Oil Concentrate (COC) from HELENA CHEMICAL (Collierville, Tenn.). Application solutions were prepared by serial dilution of the highest rate applied. One-half the volume of the highest rate stock solution (2 mL) was transferred to a clean 25 mL vial containing an equal volume of 1% COC and the diluted solution was mixed. Additional dilutions were prepared similarly by removing one-half the volume of the previous concentration (2 mL), and adding to an equal volume of 1% COC and mixing. When preparing the lowest concentration, the remaining one-half volume was discarded. All 2 mL stock solutions were further diluted by adding 10 mL aqueous mixture of 1.0% (v/v) COC, so that the final spray solutions were 12 mL in volume and contained 1.0% (v/v) COC.
Spray solutions were applied to the plant material with an overhead Mandel™ track sprayer equipped with a 8002E nozzles calibrated to deliver 187 L/ha over an application area of 0.503 square meters (m^2) at a spray height of 18 inches (46 cm) above average plant canopy height. Control plants were sprayed in the same manner with the COC blank.
The treated plants and control plants were placed in a greenhouse, and watered by sub-irrigation to prevent wash-off of the test compounds. At various times after application, the condition of the test plants as compared with that of the untreated plants was determined visually and scored on a scale of 0 to 100 percent (where 0 corresponds to no injury or growth inhibition and 100 corresponds to complete kill). Regenerated, non-transformed (NT) ‘Crenshaw’ or elite line 2905-2 creeping bentgrass plants and/or seed-derived clonally propagated plants served as quizalofop sensitive controls. […]

callus event 3404-006 = test: Dose response of AAD1 (v3) expressing maize callus event; format: cell-based; details: haloxyfop (Gallant Super) up to 400 nM
Protocol: Non-transformed donor Hi-II cell lines were pooled together, […]-treated without DNA, filtered onto GN6 medium at the rate of 6 ml per filter, and allowed to callus for 2-3 weeks at 28° C. Approximately 200 mg of callused suspension tissue was transferred per treatment to selection media in 60×20 mm plates containing 30, 100 or 300 nM R-haloxyfop acid. Three replicates were used per concentration. A control medium containing 1 mg/L bialaphos (from Herbiace commercial formulation, Meiji Seika, Japan), GN6 (1H), was also included for comparison. Callus was removed after 2 weeks, weighed, and transferred to fresh media of the same concentration for another 2 weeks. After a total of 4 weeks elapsed time, tissue was removed, weighed a final time, and then discarded.
A smaller subset of these events was assessed in dose-response studies in comparison to a non-transformed control. A range of concentrations of haloxyfop (from Gallant Super formulation), up to 400 nM, were tested.

[3] = system: AAD1 (v3) T1 tobacco (events 721(2)-013.010 and 721(3)-008.005); test: Segregating AAD1 T1 tobacco response to phenoxy auxin herbicides; format: in vivo, Nicotiana tabacum; details: rates below 1× field rates (560 g ae/ha); either event
Excerpt: Two AAD1 (v3) tobacco lines (event 721(2)-013.010 and 721(3)-008.005) were chosen from the T0 generation. The T1 seed was stratified, and sown into selection trays much like that of Arabidopsis (Example 6.4), followed by selective removal of untransformed nulls in this segregating population with 280 g ai/ha glufosinate (PAT selection). Survivors were transferred to individual 3-inch pots in the greenhouse. […] Improved consistency of response is anticipated in T1 plants not having come directly from tissue culture. These plants were compared against wildtype KY 160 tobacco. All plants were sprayed with the use of a track sprayer set at 187 L/ha. […] All applications were formulated in 200 mM Hepes buffer (pH 7.5). Each treatment was replicated 4 times. Plants were evaluated at 3 and 14 days after treatment. Plants were assigned injury rating with respect to stunting, chlorosis, and necrosis. The T1 generation is segregating, so some variable response is expected due to difference in zygosity. (Table 28).

[4] = system: homozygous T4 lines of Arabidopsis; test: 2,4-D injury and AAD1 (v3) expression in homozygous T4 Arabidopsis lines; format: in vivo, Arabidopsis thaliana; details: 800 g ae/ha and above; 14 DAT
Protocol: An experiment was designed to examine if the level of AAD1 (v3) expression in Arabidopsis varies at different growth stages. A high-tolerance, homozygous, AAD1 (v3) T4 line (id=PAAD1.01.345.163) was grown in greenhouse. […] Two leaves, the 3rd leaf from the top and the 5th leaf from the bottom, were harvested from 5 plants, both treated and untreated, and analyzed by ELISA and Western Blotting (as described in Example 11) experiments at 4, 10, 14, 20 and 25 DAT. […] The protein levels accumulated in older plants with some significant protein degradation at the later time points.
These plants also expressed high level of AAD1 (v3), from 0.1 to 0.25% of (FIG. 9B). On the contrary, the low tolerance line expressed less than 0.1% of AAD1 (v3) in TSP and suffered observable injury.

How did the “injury of tall fescue events compared to non-transgenic control plants” value [1] turn out when `C[C@@H](Oc1ccc(Oc2cnc3cc(Cl)ccc3n2)cc1)C(=O)O` [quizalofop] was run?
Its value is “less injury”.

What about the “mean injury, pDAB5042 2095-2 events” value ([2]; 120, 480 and 960 g ae/ha, 22 to 50 DAA) of the same compound?
Its value is “less than 25%”.

What about the “injury of 48 of the 53 individual 2095-2 events” value ([2]; 120 g ae/ha) of the same compound?
The value was ≤ 20%.

And the “injury of four 2095-2 events” value ([2]; 120 g ae/ha)?
Its value is “between about 25% and 35% injury”.

`CC(Oc1ccc(Oc2ncc(C(F)(F)F)cc2Cl)cc1)C(=O)O` (stereo not shown) [haloxyfop] was tested. Which “callus growth of event 3404-006” value (callus event 3404-006) did it give?
Its value is “no significant reduction in callus growth”.

How did the “injury of T1 AAD1 (v3) tobacco” value [3] turn out when `O=C(O)COc1ccc(Cl)cc1Cl` [2,4-D, 2,4-dichlorophenoxyacetic acid] was run?
Its value is “No injury was observed”.

What about the “response of control plants” value [4] of the same compound?
Its value is “died”.
